Results on 102 compounds are retold here after a flash point compilation (Sun et al. 2020).

Structures are written as SMILES.

Experiment in series [1]: not given
The source holds these as a separate data set.

Experiment in series [2]: not given
The source holds these as a separate data set.

`C=CC=CO[Si](C)(C)C` [1-(Trimethylsiloxy)-1,3-butadiene] gave a flash point of 25.00 °C.

`CCCCCCCCCCCCO` [1-DODECANOL] came in with a flash point in series [1] of 125 °C.

For the compound `C=CCCCCCCCCCC` [1-DODECENE], the flash point in series [1] came out at 67 °C.

For `C=CCCCCCCCC` [1-Decene], the flash point in series [1] turned out to be 47.0 °C.

In series [1], `C=CCCCC` [1-HEXENE] registered a flash point of -31 °C.

In series [1], `CCCCCCCS` [1-Heptanethiol] came in with a flash point of 50.5 °C.

In series [1], `C=CCCCCC` [1-Heptene] showed a flash point of -8.0 °C.

The compound `CCCCCC#C[Si](C)(C)C` [1-Heptynyltrimethylsilane] gave a flash point of 42.00 °C.

In the case of `CCCCCCN` [1-Hexanamine], the flash point in series [1] amounted to 27.0 °C.

The compound `CCCCCCS` [1-Hexanethiol] registered a flash point in series [1] of 32.5 °C.

`CCCCC=C[Si](Cl)(Cl)Cl` [1-Hexenyltrichlorosilane]: the flash point came out at 60.00 °C.

Take `CCCCCCCCCO` [1-NONANOL]: the flash point in series [1] is 95 °C.

As to `CCCCCCCCC=O` [1-Nonanal], in series [1], the flash point came out at 63.0 °C.

With `CCCCCCCCCO` [1-Nonanol], the flash point in series [1] worked out at 96.0 °C.

For `C=CCCC` [1-PENTENE], the flash point in series [1] was -54 °C.

As to `C=CCCCCCCCCCCCCC` [1-Pentadecene], the flash point in series [1] came out at 112.0 °C.

For the compound `CCCC(C)CO` (stereo not given) [1-Pentanol, 2-methyl-], in series [1], the flash point worked out at 50.0 °C.

The compound `C=CC(C)CC` (stereo not given) [1-Pentene, 3-methyl-] displayed a flash point in series [1] of -27.9 °C.

In series [1], `CCCS` [1-Propanethiol] returned a flash point of -19.9 °C.

Compound `CCCCCCCCCCCO` [1-UNDECANOL] displayed a flash point in series [1] of 115 °C.

For `CCCCCCCCCCCO` [1-Undecanol], the flash point in series [1] turned out to be 113.0 °C.

In series [1], `CCC(C)(C)C(=O)O` [2,2-Dimethylbutyric acid] came in with a flash point of 79.0 °C.

For `Cc1ccc(O)c(C)c1` [2,4-Dimethylphenol], the flash point in series [1] was 95.0 °C.

Take `Cc1cccc(C)c1O` [2,6-Dimethylphenol]: the flash point in series [1] came out at 85.0 °C.

`CO[Si](CCC1CCC2OC2C1)(OC)OC` (stereo not given) [2-(3,4-epoxycyclohexyl)ethyltrimethoxysilane]: the flash point was 146.00 °C.

On to `CC(C)C(C)O` (stereo not given) [2-Butanol, 3-methyl-], for which, in series [1], the flash point was 26.0 °C.

Regarding `CC=C(C)C` [2-Butene, 2-methyl-], in series [1], the flash point is -44.9 °C.

In series [1], `CCCCC(CC)CO` (stereo not given) [2-Ethylhexanol] showed a flash point of 73 °C.

Regarding `CCCCC(C)O` (stereo not given) [2-HEXANOL], the flash point in series [1] was determined as 46.2 °C.

Consider `CCCCCC(C)=O` [2-Heptanone], for which the flash point in series [1] stood at 39.0 °C.

On to `CCCCC(C)O` (stereo not given) [2-Hexanol], for which, in series [1], the flash point worked out at 45.0 °C.

`CC(C)CO` [2-Methyl-1-propanol] displayed a flash point in series [1] of 29.2 °C.

As to `CC(CCl)C[Si](C)(Cl)Cl` (stereo not given) [3-Chloro-2-methylpropylmethyldichlorosilane], the flash point stood at 90.00 °C.

Regarding `CO[Si](C)(CCCCl)OC` [3-Chloropropylmethyldimethoxysilane], the flash point is 45.00 °C.

For `C=C(C)C(=O)OCCC[Si](OC)(OC)OC` [3-Methacryloxypropyltrimethoxysilane], the flash point came out at 92.00 °C.

In series [1], `CCC(O)CC` [3-PENTANOL] displayed a flash point of 27 °C.

Compound `CCC(C)(O)CC` [3-Pentanol, 3-methyl-] registered a flash point in series [1] of 24.0 °C.

In the case of `CCC(O)CC` [3-Pentanol], the flash point in series [1] turned out to be 30.0 °C.

The compound `CCCCCC(=O)CCCCC` [6-Undecanone] came in with a flash point in series [1] of 88.4 °C.

The compound `C=CC=CC[Si](C)(C)C` [(2,4-Pentadienyl)trimethylsilane] gave a flash point of 18.00 °C.

Turning to `C[Si](C)(C)OC1=CCCC1` [(Cyclopentenyloxy)trimethylsilane], the flash point was 38.00 °C.

`CCN(CC)[Si](C)(C)C` [(Diethylamino)trimethylsilane]: the flash point was 10.00 °C.

On to `CO[Si](CCCNCCN)(OC)OC` [Aminoethylaminopropyltrimethoxysilane], for which the flash point was 96.00 °C.

In the case of `CCCCCOC(C)=O` [Amyl acetate], the flash point in series [1] amounted to 37.0 °C.

On to `Nc1ccccc1` [Aniline], for which the flash point is 70.00 °C in series [2] and 71.0 °C in series [1].

With `CNc1ccccc1` [Benzenamine, N-methyl-], the flash point in series [1] was 78 °C.

In the case of `C[Si](C)(C)Cc1ccccc1` [Benzyltrimethylsilane], the flash point came out at 62.00 °C.

In the case of `CCN(CC)[Si](C)(C)N(CC)CC` [Bis(diethylamino)dimethylsilane], the flash point was found to be 35.00 °C.

In the case of `CCCCS` [Butanethiol], in series [1], the flash point is 1.0 °C.

On to `C[Si](C)(Cl)CCC(F)(F)F` [Chlorodimethyl(3,3,3-trifluoropropyl) silane], for which the flash point was determined as 20.00 °C.

On to `C[Si](C)(Cl)CCl` [Chloromethyldimethylchlorosilane], for which the flash point is 22.00 °C.

As for `CCCCC1CCCCC1` [Cyclohexane, butyl-], in series [1], the flash point came to 52.5 °C.

For `Cl[Si](Cl)(Cl)C1CCCCC1` [Cyclohexyltrichlorosilane], the flash point is 85.00 °C.

In turn, `C[Si](C)(C)C1C=CC=C1` [Cyclopentadienyltrimethylsilane] yielded a flash point of 29.00 °C.

`NC1CCCC1` [Cyclopentanamine] came in with a flash point in series [1] of 11.5 °C.

On to `CCC1CCCC1` [Cyclopentane, ethyl-], for which the flash point in series [1] was -0.0 °C.

In the case of `C[Si]1(C)O[Si](C)(C)O[Si](C)(C)O[Si](C)(C)O[Si](C)(C)O1` [Decamethylcyclopentasiloxane], the flash point was found to be 77.00 °C.

For `CCCCCCCCCC(=O)O` [Decanoic acid], the flash point in series [1] was determined as 148.0 °C.

On to `CCO[Si](CC)(CC)OCC` [Diethyldiethoxysilane], for which the flash point came to 43.00 °C.

`CC(C)NC(C)C` [Diisopropylamine] registered a flash point in series [1] of -7.0 °C.

As for `CNC` [Dimethylamine], in series [1], the flash point was -49.9 °C.

`CO[Si](C)(C)OC` [Dimethyldimethoxysilane] yielded a flash point of -8.00 °C.

The compound `Cl[Si](Cl)(c1ccccc1)c1ccccc1` [Diphenyldichlorosilane] registered a flash point of 142.00 °C.

`CO[Si](OC)(c1ccccc1)c1ccccc1` [Diphenyldimethoxysilane] yielded a flash point of 121.00 °C.

`c1ccc([SiH2]c2ccccc2)cc1` [Diphenylsilane] returned a flash point of 98.00 °C.

In series [1], `CCCNCCC` [Dipropylamine] gave a flash point of 7.5 °C.

For `C[Si]1(C)O[Si](C)(C)O[Si](C)(C)O[Si](C)(C)O[Si](C)(C)O[Si](C)(C)O1` [Dodecamethylcyclohexasiloxane], the flash point was 93.00 °C.

`C[Si](C)(C)O[Si](C)(C)O[Si](C)(C)O[Si](C)(C)O[Si](C)(C)C` [Dodecamethylpentasiloxane] displayed a flash point of 79.00 °C.

As to `CCOCCOCCO` [Ethanol, 2-(2-ethoxyethoxy)-], the flash point in series [1] amounted to 90.0 °C.

On to `COCCO` [Ethanol, 2-methoxy-], for which the flash point in series [1] turned out to be 39.0 °C.

In turn, `CC[Si](C)(C)Cl` [Ethyldimethylchlorosilane] returned a flash point of -4.00 °C.

`CC[SiH3]` [Ethylsilane] showed a flash point of -60.00 °C.

For the compound `CCCCCC#N` [HEXANENITRILE], the flash point in series [1] was determined as 47 °C.

`CCCCCC(C)C` [Heptane, 2-methyl-] displayed a flash point in series [1] of 6.0 °C.

With `CCCCC(CC)CC` [Heptane, 3-ethyl-], the flash point in series [1] worked out at 23.0 °C.

`CCCCCCC(=O)O` [Heptanoic acid]: the flash point in series [1] is 115.0 °C.

The compound `CCCC(CC)CC` [Hexane, 3-ethyl-] registered a flash point in series [1] of 5 °C.

For the compound `CCCCCC#N` [Hexanenitrile], the flash point in series [1] is 43.0 °C.

As to `CCCCC(CC)C(=O)O` (stereo not given) [Hexanoicacid, 2-ethyl-], the flash point in series [1] came to 110.0 °C.

With `CN(C)c1ccccc1` [N,N-DIMETHYLANILINE], the flash point in series [1] amounted to 62.0 °C.

In series [1], `CN(C)c1ccccc1` [N,N-Dimethylaniline] gave a flash point of 75.0 °C.

Regarding `CCCCCCC(C)CC` (stereo not given) [Nonane, 3-methyl-], the flash point in series [1] turned out to be 46.0 °C.

In series [1], `CCCCCC(C)CCC` (stereo not given) [Nonane, 4-methyl-] came in with a flash point of 44.0 °C.

Regarding `CCCCC(C)CCCC` [Nonane, 5-methyl-], the flash point in series [1] turned out to be 39 °C.

In the case of `CCCCCCCC=O` [Octanal], the flash point in series [1] came out at 51.0 °C.

Turning to `CCCCC(C)CCC` (stereo not given) [Octane, 4-methyl-], the flash point in series [1] was found to be 23.0 °C.

Consider `CCCCCCCC` [Octane], for which the flash point in series [1] stood at 14.0 °C.

On to `CCCCCCCC(=O)O` [Octanoic acid], for which the flash point was found to be 132.00 °C in series [2] and 127.0 °C in series [1].

As for `Oc1ccccc1` [PHENOL], the flash point in series [1] was 80 °C.

As to `CCc1ccccc1O` [Phenol, 2-ethyl-], the flash point in series [1] stood at 85.0 °C.

For the compound `CCCOCC` [Propane, 1-ethoxy-], the flash point in series [1] is -19.9 °C.

Consider `CCCOC(C)=O` [Propyl acetate], for which the flash point in series [1] amounted to 10.6 °C.

In series [1], `Cc1ccccn1` [Pyridine, 2-methyl-] gave a flash point of 26.0 °C.

In the case of `Cc1ccncc1` [Pyridine, 4-methyl-], the flash point in series [1] stood at 39.0 °C.

On to `Cc1ccccc1` [TOLUENE], for which the flash point in series [1] was determined as 4.0 °C.

In series [1], `CCN(CC)CC` [TRIETHYLAMINE] showed a flash point of -15.0 °C.

As for `Cc1ccccc1` [Toluene], the results for the flash point in series [2] and in series [1] were 4.40 °C and 6.0 °C, respectively.

In series [1], `CCCCCCCCCCCCC` [Tridecane] showed a flash point of 90.0 °C.

`CCN(CC)CC` [Triethylamine] registered a flash point in series [1] of -11.0 °C.

As to `CCc1cccc(C)c1` [m-Ethyltoluene], in series [1], the flash point came out at 38.0 °C.

Take `CCC(C)N` (stereo not given) [sec-BUTYLAMINE]: in series [1], the flash point is -28.8 °C.

Regarding `CCC(C)N` (stereo not given) [sec-Butylamine], in series [1], the flash point is -18.9 °C.
